Experimental findings from patent US20220168427A1 (Ranok Therapeutics (Hangzhou) Co. Ltd., priority 2019, published 2022) are described below.

A value given as a limit tells only on which side of the number the result lay.

The target of series [1] is HSP90α (Homo sapiens, UniProt P07900). Description: HSP90α Binding Fluorescent Polarization (FP) Assay. The conditions noted are these: competition with FITC-geldanamycin; read-out: HSP90 Binding Potency. The procedure, abridged:
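Duplicate wells held BSA buffer, FITC-geldanamycin tracer, compound (3-fold dilution plate spanning 40 μM–2.0 nM) and recombinant protein diluted to 28 μg/ml before addition. Polarization read at 30, 60 and 120 min, 25 °C. Background-corrected mP values gave IC50 through a four-parameter inhibitor-response fit.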

Series [2] has as its target T1, BRD4 (BD1+BD2) (Homo sapiens, UniProt O60885).
T1 construct: 1.8 μg/ml recombinant BRD4 (BD1+BD2 domains) protein
Particulars: read-out: BRD4 Binding Potency.

The subject of series [3] is MV4-11 cells. Description: MV4-11 Cell Cytotoxicity Assay. Particulars: human, MV4-11 cells, CCK-8. The class given is cell-based, human. From the text: % Inhibition=100−(D−B)/(S−B)*100%.
S: The absorbance of the maximum (cells with DMSO)
B: The absorbance of the minimum (medium with DMSO)

For `CCCc1cc(-c2nnc(C(=O)NCCN3CCCCC3)n2-c2ccc(CN3CCN(CC4CCN(C(=O)C[C@@H]5N=C(c6ccc(Cl)cc6)c6c(sc(C)c6C)-n6c(C)nnc65)CC4)CC3)cc2)c(O)cc1O` [Compound 123, (S)-4-(4-((4-((1-(2-(4-(4-chlorophenyl)-2,3,9-trimethyl-6H-thieno[3,2-f][1,2,4]triazolo[4,3-a][1,4]diazepin-6-yl)acetyl)piperidin-4-yl)methyl)piperazin-1-yl)methyl)phenyl)-5-(2,4-dihydroxy-5-propylphenyl)-N-(2-(piperidin-1-yl)ethyl)-4H-1,2,4-triazole-3-carboxamide, trifluoroacetic acid], the IC50 in series [1] is 100 to 1000 nM; in series [2], below 100 nM. In series [3], this molecule had an IC50 at 72 h below 100 nM.
For the molecule `Cc1sc2c(c1C)C(c1ccc(Cl)cc1)=N[C@@H](CC(=O)N[C@H](C)c1cccc(CN3CCC(Cc4ccc(-n5c(O)nnc5-c5cc(C(C)C)c(O)cc5O)cc4)CC3)c1)c1nnc(C)n1-2` [Compound 81, 2-((S)-4-(4-chlorophenyl)-2,3,9-trimethyl-6H-thieno[3,2-f][1,2,4]triazolo[4,3-a][1,4]diazepin-6-yl)-N—((R)-1-(3-((4-(4-(3-(2,4-dihydroxy-5-isopropylphenyl)-5-hydroxy-4H-1,2,4-triazol-4-yl)benzyl)piperidin-1-yl)methyl)phenyl)ethyl)acetamide, trifluoroacetic acid], the IC50 in series [1] and in series [2] was 100 to 1000 nM in each case. In series [3], this molecule had an IC50 at 72 h below 100 nM.
Regarding `Cc1sc2c(c1C)C(c1ccc(Cl)cc1)=N[C@@H](CC(=O)N1CCC(CN3CCN(Cc4ccc(-n5c(C(=O)NCC(F)(F)F)nnc5-c5cc(C(C)C)c(O)cc5O)cc4)CC3)CC1)c1nnc(C)n1-2` [Compound 13, 4-(4-((4-((1-(2-((6S)-4-(4-chlorophenyl)-2,3,9-trimethyl-6H-thieno[3,2-f][1,2,4]triazolo[4,3-a][1,4]diazepin-6-yl)acetyl)piperidin-4-yl)methyl)piperazin-1-yl)methyl)phenyl)-5-(2,4-dihydroxy-5-isopropylphenyl)-N-(2,2,2-trifluoroethyl)-4H-1,2,4-triazole-3-carboxamide], the IC50 in series [1] and in series [2] was 100 to 1000 nM each time. This molecule also displayed an IC50 at 72 h in series [3] below 100 nM.
For `Cc1sc2c(c1C)C(c1ccc(Cl)cc1)=N[C@@H](CC(=O)N(C)[C@H](C)c1ccc(CN3CCN(Cc4ccc(-n5c(O)nnc5-c5cc(C(C)C)c(O)cc5O)cc4)CC3)cc1)c1nnc(C)n1-2` [Compound 92, 2-((S)-4-(4-chlorophenyl)-2,3,9-trimethyl-6H-thieno[3,2-f][1,2,4]triazolo[4,3-a][1,4]diazepin-6-yl)-N—((R)-1-(4-((4-(4-(3-(2,4-dihydroxy-5-isopropylphenyl)-5-hydroxy-4H-1,2,4-triazol-4-yl)benzyl)piperazin-1-yl)methyl)phenyl)ethyl)-N-methylacetamide, trifluoroacetic acid], the IC50 in series [1] and in series [2] was above 1000 nM in each case. In series [3], this molecule yielded an IC50 at 72 h of 100 to 1000 nM.
For `Cc1sc2c(c1C)C(c1ccc(Cl)cc1)=N[C@@H](CC(=O)NCc1ccc(CN3CCC(Cc4ccc(-n5c(C(=O)NCC(F)(F)F)nnc5-c5cc(C(C)C)c(O)cc5O)cc4)CC3)cc1)c1nnc(C)n1-2` [Compound 96, (S)-4-(4-((1-(4-((2-(4-(4-chlorophenyl)-2,3,9-trimethyl-6H-thieno[3,2-f][1,2,4]triazolo[4,3-a][1,4]diazepin-6-yl)acetamido)methyl)benzyl)piperidin-4-yl)methyl)phenyl)-5-(2,4-dihydroxy-5-isopropylphenyl)-N-(2,2,2-trifluoroethyl)-4H-1,2,4-triazole-3-carboxamide, trifluoroacetic acid], the IC50 in series [1] was 100 to 1000 nM; in series [2] it was below 100 nM. In series [3], this molecule returned an IC50 at 72 h below 100 nM.
Consider `Cc1sc2c(c1C)C(c1ccc(Cl)cc1)=N[C@@H](CC(=O)NCCOCCN1CCN(Cc3ccc(-n4c(O)nnc4-c4cc(C(C)C)c(O)cc4O)cc3)CC1)c1nnc(C)n1-2` [Compound 49, 2-((6S)-4-(4-chlorophenyl)-2,3,9-trimethyl-6H-thieno[3,2-f][1,2,4]triazolo[4,3-a][1,4]diazepin-6-yl)-N-(2-(2-(4-(4-(3-(2,4-dihydroxy-5-isopropylphenyl)-5-hydroxy-4H-1,2,4-triazol-4-yl)benzyl)piperazin-1-yl)ethoxy)ethyl)acetamide, trifluoroacetic acid, trifluoroacetic acid, trifluoroacetic acid, trifluoroacetic …], for which the values for the IC50 in series [1] and in series [2] were below 100 nM and 100 to 1000 nM, respectively. This molecule showed an IC50 at 72 h in series [3] below 100 nM.
On to `Cc1sc2c(c1C)C(c1ccc(Cl)cc1)=NC(CC(=O)N[C@H](C)c1ccc(CN3CCN(Cc4ccc(-n5c(O)nnc5-c5cc(C(C)C)c(O)cc5O)cc4)CC3)cc1)c1nnc(C)n1-2` (stereo in doubt) [Compound 70, 2-((6S)-4-(4-chlorophenyl)-2,3,9-trimethyl-6H-thieno[3,2-f][1,2,4]triazolo[4,3-a][1,4]diazepin-6-yl)-N—((R)-1-(4-((4-(4-(3-(2,4-dihydroxy-5-isopropylphenyl)-5-hydroxy-4H-1,2,4-triazol-4-yl)benzyl)piperazin-1-yl)methyl)phenyl)ethyl)acetamide, trifluoroacetic acid], for which the IC50 in series [1] and in series [2] was 100 to 1000 nM throughout. Moreover, the IC50 at 72 h in series [3] was below 100 nM.
In the case of `Cc1sc2c(c1C)C(c1ccc(Cl)cc1)=N[C@@H](CC(=O)N1CCC(CN3CCN(Cc4ccc(-n5c(C(N)=O)nnc5-c5ccc(O)cc5O)cc4)CC3)CC1)c1nnc(C)n1-2` [Compound 112, (S)-4-(4-((4-((1-(2-(4-(4-chlorophenyl)-2,3,9-trimethyl-6H-thieno[3,2-f][1,2,4]triazolo[4,3-a][1,4]diazepin-6-yl)acetyl)piperidin-4-yl)methyl)piperazin-1-yl)methyl)phenyl)-5-(2,4-dihydroxyphenyl)-4H-1,2,4-triazole-3-carboxamide, trifluoroacetic acid], the figures for the IC50 in series [1] and in series [2] were 100 to 1000 nM and below 100 nM, respectively. Also, the IC50 at 72 h in series [3] was below 100 nM.
As for `Cc1sc2c(c1C)C(c1ccc(Cl)cc1)=N[C@@H](CC(=O)NCC(=O)NCCOc1ccc(-n3c(S)nnc3-c3cc(C(C)C)c(O)cc3O)cc1)c1nnc(C)n1-2` [Compound 48, (S)-2-(4-(4-chlorophenyl)-2,3,9-trimethyl-6H-thieno[3,2-f][1,2,4]triazolo[4,3-a][1,4]diazepin-6-yl)-N-(2-((2-(4-(3-(2,4-dihydroxy-5-isopropylphenyl)-5-mercapto-4H-1,2,4-triazol-4-yl)phenoxy)ethyl)amino)-2-oxoethyl)acetamide], the IC50 in series [1] is below 100 nM; in series [2], 100 to 1000 nM. The molecule also registered an IC50 at 72 h in series [3] of 100 to 1000 nM.
On to `Cc1sc2c(c1C)C(c1ccc(Cl)cc1)=N[C@@H](CCNCC1CCN(C(=O)C3CCN(Cc4ccc(-n5c(O)nnc5-c5cc(C(C)C)c(O)cc5O)cc4)CC3)C1)c1nnc(C)n1-2` (stereo partly drawn) [Compound 66, (3-(((2-((6S)-4-(4-chlorophenyl)-2,3,9-trimethyl-6H-thieno[3,2-f][1,2,4]triazolo[4,3-a][1,4]diazepin-6-yl)ethyl)amino)methyl)pyrrolidin-1-yl)(1-(4-(3-(2,4-dihydroxy-5-isopropylphenyl)-5-hydroxy-4H-1,2,4-triazol-4-yl)benzyl)piperidin-4-yl)methanone, trifluoroacetic acid], for which the IC50 was 100 to 1000 nM in series [1] and above 1000 nM in series [2]. For the same molecule, in series [3], the IC50 at 72 h fell in the range of 100 to 1000 nM.
